Laboratory results taken from patent US6946465B2, “Immunosuppressive effects of pteridine derivatives” (4 AZA Bioscience NV, priority 1999, dated 2005).

Key:
Assay type in all cases: cell-based, human
[1] = test system: peripheral blood mononuclear cells (PBMC) with allogeneic PBMC or RPMI1788 stimulator cells; test: Mixed lymphocyte reaction (MLR) test, [3H]-thymidine incorporation; details: Table 1; 5 days incubation + 16 h thymidine
Description: (§1) Various models may be used for testing an immunosuppressive effect. In vivo, for example, different transplantation models are available. They are strongly influenced by different immunogenicities, depending on the donor and recipient species used and depending on the nature of the transplanted organ. The survival time of transplanted organs can thus be used to measure the suppression of the immune response. In vitro, the most used models are lymphocyte activation tests. Usually activation is measured via lymphocyte proliferation. Inhibition of proliferation thus always means immunosuppression under the experimental conditions applied. There exist different stimuli for lymphocyte activation: • a) co-culture of lymphocytes of […] (mixed lymphocyte reaction, hereinafter referred as MLR) in a so-called mixed lymphocyte culture test: lymphocytes expressing different minor and major antigens of the HLA-DR type (=alloantigens) activate each other non-specifically. • b) a CD3 assay here there is an activation of the T-lymphocytes via an exogenously added antibody (OKT3).
(§2) All reagents were dissolved in 0.5 ml dimethylsulfoxide (hereinafter referred as DMSO) and further diluted in culture medium before use for the following in vitro experiments. The commercially available culture medium consisted of RPMI-1640+10% foetal calf serum (FCS).
Peripheral blood mononuclear cells (hereinafter referred as PBMC) were isolated from heparinized peripheral blood by density gradient centrifugation over Lymphoprep (Nycomed, Maorstua, Norway). Allogeneic PBMC or Eppstein-Barr Virus-transformed human B cells [commercially available under the trade name RPM11788 (ATCC name CCL156)] which strongly express B7-1 and B7-2 antigens were used as stimulator cells after irradiation with 30 Gy. MLR was performed in triplicate wells. After 5 days incubation at 37° C., 1 μCi [^3 H]-thymidine was added to each cup. After a further 16 hours incubation, cells were harvested and counted in a β-counter. Inhibition of proliferation by a compound (drug) described in some of the previous examples was counted using the formula: [formula] wherein cpm is the thymidine count per minute. Assays for CD3 and CD 28

[2] = test system: highly purified T cells stimulated by immobilized anti-CD3 mAb; test: CD3 assay: T-cell proliferation stimulated by anti-CD3 mAb + PMA (BrdU); details: Table 1; anti-CD3 mAb + PMA 0.5 ng/ml, 48 h; read-out: CD 3 IC50
Description: as §1, §2
(§3) T cells were purified by removing non-T cells. Briefly, monocytes were removed by cold agglutination. The resulting lymphoid cells were further purified by a cell enrichment immunocolumn [Cellect Human T commercially available from Biotex, Edmonton, Alberta, Canada)] by a process of negative selection.
(§4) Highly purified T cells (10^6/ml) were stimulated by immobilized anti-CD3 or anti-CD28 monoclonal antibodies (hereinafter referred as mAb) in the presence of PMA. Anti-CD3 mAb (available from CLB, Amsterdam, Netherlands) were fixed on the 96-microwell plates by incubating the wells with 50 μl of mAb solution (1/800 dilution in culture medium). For anti-CD28 mAb (available from CLB, Amsterdam, Netherlands) 50 μl (1/650 dilution in culture medium) was added directly to the wells. Further, a 20 μl phorbol myristate acetate (hereinafter referred as PMA (commercially available from Sigma, St. Louis, Mo., USA) solution (final concentration: 0.5 ng/ml) was added. Subsequently, 20 μl of a compound described in some of the previous examples were added by serial dilution in triplicate wells. Finally 100 μl of the T-cell suspension (10^6/ml) was added. After 48-hour incubation at 37° C. in 5% CO2 20 μl of a bromo-deuridine (hereinafter referred as BrdU) 100 μM solution (commercially available as Cell Proliferation Elisa from Boehringer-Mannheim Belgium) was added to each well. After a further overnight incubation, T-cell proliferation was measured using a colorimetric immunoassay for qualification of cell proliferation based on the incorporation of BrdU during DNA synthesis. Optical density (hereinafter referred as OD) was measured by a Behring EL311 plate reader at 450 nm (reference wavelength: 690 nm). Inhibition of proliferation by a compound (drug) described in some of the previous examples was counted using the formula: [formula]

[3] = test system: highly purified T cells stimulated by anti-CD28 mAb; test: CD28 assay: T-cell proliferation stimulated by anti-CD28 mAb + PMA (BrdU); details: Table 1; anti-CD28 mAb + PMA 0.5 ng/ml, 48 h
Description: as §1, §2, §3, §4

Cc1nc2c(=O)n(C)c(=O)n(C)c2nc1C=Cc1ccccc1 [Example 76, 7-(2-phenylethenyl)-1,3,6-trimethyl-lumazine]
IC50 [1]: 120 µM | IC50 [2]: 68 µM | IC50 [3]: 116 µM

Cn1c(=O)c2nc(/C=C/c3cccnc3)cnc2n(C)c1=O [Example 6, 1,3-dimethyl-6-[(E)-2-(pyrid-3-yl)vinyl]lumazine]
IC50 [1]: 30 µM | IC50 [2]: 110 µM | IC50 [3]: 110 µM

Cn1c(=O)c2nc(C=O)c(NC3CC3)nc2n(C)c1=O [Example 70, 6-formyl-7-cyclopropylamino-1,3-dimethyl-lumazine]
IC50 [1]: 80 µM | IC50 [2]: 80 µM | IC50 [3]: 116 µM

Cn1c(=O)c2nc(C=Cc3ccc(C(F)(F)F)cc3)cnc2n(C)c1=O [Example 78, 6-[2-(p-trifluoromethylphenyl)ethenyl]-1,3-dimethyllumazine]
IC50 [1]: 17 µM | IC50 [2]: > 200 µM | IC50 [3]: 164 µM

Cn1c(=O)c2nc(C#N)c(NCc3ccccc3)nc2n(C)c1=O [Example 53, 6-cyano-7-benzylamino-1,3-dimethyl-lumazine]
IC50 [1]: 140 µM | IC50 [2]: 140 µM | IC50 [3]: 104 µM

Cn1c(=O)c2nc(C=O)c(O)nc2n(C)c1=O [Example 45, 6-formyl-7-hydroxy-1,3-dimethyl-lumazine]
IC50 [1]: > 200 µM | IC50 [2]: 15.5 µM | IC50 [3]: 9 µM

Cn1c(=O)c2nc(C(Cl)Cl)c(Cl)nc2n(C)c1=O [Example 50, 6-dichloromethyl-7-chloro-1,3-dimethyl-lumazine]
IC50 [1]: 4 µM | IC50 [2]: 9.5 µM | IC50 [3]: 9.5 µM

Cn1c(=O)c2nc(/C=C/c3ccncc3)cnc2n(C)c1=O [Example 7, 1,3-dimethyl-6-[(E)-2-(pyrid-4-yl)vinyl]lumazine]
IC50 [1]: 20 µM | IC50 [2]: 150 µM | IC50 [3]: 150 µM

Cn1c(=O)c2nc(/C=C/C=Cc3ccccc3)cnc2n(C)c1=O [Example 9, 1,3-dimethyl-6-[(E)-4-(phenyl)butadienyl]lumazine]
IC50 [1]: 75 µM | IC50 [2]: 140 µM | IC50 [3]: 140 µM

Cn1c(=O)c2ncc(/C=C/C=Cc3ccccc3)nc2n(C)c1=O [Example 23, 1,3-dimethyl-7-[(E)-4-(phenyl)butadienyl]-lumazine]
IC50 [1]: 30 µM | IC50 [2]: 110 µM | IC50 [3]: 80 µM

Cn1c(=O)[nH]c2nc(O)c(-c3ccccc3)nc2c1=O [Example 42, 7-hydroxy-3-methyl-6-phenyllumazine]
IC50 [1]: 55 µM | IC50 [2]: 20 µM | IC50 [3]: 25 µM

Cn1c(=O)c2nc(C(Cl)Cl)c(SCc3ccccc3)nc2n(C)c1=O [Example 71, 6-dichloromethyl-7-mercaptobenzyl-1,3-dimethyl-lumazine]
IC50 [1]: 56 µM | IC50 [2]: > 20 µM | IC50 [3]: > 20 µM

COC(=O)/C=C/c1cnc2c(=O)n(C)c(=O)n(C)c2n1 [Example 24, 7-[(E)-2-methoxycarbonylethenyl]-1,3-dimethyl-lumazine]
IC50 [1]: 15 µM | IC50 [2]: 12 µM | IC50 [3]: 12 µM

Cn1c(=O)c2nc(C=C[N+](=O)[O-])cnc2n(C)c1=O [Example 18, 1,3-dimethyl-6-[(2-nitro)ethenyl]lumazine]
IC50 [1]: 12 µM | IC50 [2]: 0.8 µM | IC50 [3]: 0.4 µM

Cn1c(=O)c2nc(C#N)c(Cl)nc2n(C)c1=O [Example 47, 6-cyano-7-chloro-1,3-dimethyl-lumazine]
IC50 [1]: 104 µM | IC50 [2]: 15 µM | IC50 [3]: 12 µM

CC(C)Sc1nc2c(nc1C#N)c(=O)n(C)c(=O)n2C [Example 58, 6-cyano-7-mercaptoisopropyl-1,3-dimethyl-lumazine]
IC50 [1]: 116 µM | IC50 [2]: 104 µM | IC50 [3]: 116 µM

Cc1nc2c(nc1NCc1ccccc1)c(=O)n(C)c(=O)n2C [Example 73, 6-benzylamino-1,3,7-trimethyl-lumazine]
IC50 [1]: 44 µM | IC50 [2]: 92 µM | IC50 [3]: 128 µM

Cn1c(=O)c2nc(C#N)c(NC3CCCCC3)nc2n(C)c1=O [Example 55, 6-cyano-7-cyclohexylamino-1,3-dimethyl-lumazine]
IC50 [1]: 15 µM | IC50 [2]: 92 µM | IC50 [3]: 92 µM

Cn1c(=O)c2ncc(C(Br)=Cc3ccccc3)nc2n(C)c1=O [Example 28, 7-(1-bromo-2-phenyl)ethenyl-1,3-dimethyllumazine]
IC50 [1]: 2.7 µM | IC50 [2]: 2.4 µM | IC50 [3]: 2.7 µM

CC(C)CNc1nc2c(nc1C#N)c(=O)n(C)c(=O)n2C [Example 52, 6-cyano-7-isobutylamino-1,3-dimethyl-lumazine]
IC50 [1]: 116 µM | IC50 [2]: 116 µM | IC50 [3]: 80 µM

Cn1c(=O)c2ncc(/C=C/c3ccncc3)nc2n(C)c1=O [Example 22, 1,3-dimethyl-7-[(E)-2-(pyrid-4-yl)vinyl]lumazine]
IC50 [1]: 75 µM | IC50 [2]: 125 µM | IC50 [3]: 100 µM

CCCCN(CCCC)c1nc2c(nc1C#N)c(=O)n(C)c(=O)n2C [Example 56, 6-cyano-7-dibutylamino-1,3-dimethyl-lumazine]
IC50 [1]: 12 µM | IC50 [2]: 152 µM | IC50 [3]: 116 µM

CCSC(C[N+](=O)[O-])c1cnc2c(n1)c(=O)n(C)c(=O)n2C (stereo not drawn) [Example 19, 6-[(1-ethylthio-2-nitro)ethyl]-1,3-dimethyl-lumazine]
IC50 [1]: 4.5 µM | IC50 [2]: 0.35 µM | IC50 [3]: 0.09 µM

CCCn1c(=O)c2nc(-c3ccccc3)c(O)nc2n(CCC)c1=O [Example 44, 7-hydroxy-6-phenyl-1,3-di-n-propyllumazine]
IC50 [1]: 120 µM | IC50 [2]: 80 µM | IC50 [3]: 70 µM

COC(=O)C=C(OC)c1cnc2c(n1)c(=O)n(C)c(=O)n2C [Example 16]
IC50 [1]: 70 µM | IC50 [2]: 80 µM | IC50 [3]: 80 µM

Cn1c(=O)c2nc(Cl)c(C#N)nc2n(C)c1=O [Example 51, 6-chloro-7-cyano-1,3-dimethyl-lumazine]
IC50 [1]: 116 µM | IC50 [2]: 56 µM | IC50 [3]: 56 µM

Cn1c(=O)c2nc(C(O)C[N+](=O)[O-])cnc2n(C)c1=O (stereo not drawn) [Example 17, 6-[(1-hydroxy-2-nitro)ethyl]-1,3-dimethyllumazine]
IC50 [1]: 90 µM | IC50 [2]: 25 µM | IC50 [3]: 15 µM

CC(=O)Nc1nc2c(nc1C#N)c(=O)n(C)c(=O)n2C [Example 54, 6-cyano-7-acetenylamino-1,3-dimethyl-lumazine]
IC50 [1]: 140 µM | IC50 [2]: 104 µM | IC50 [3]: 80 µM

Cn1c(=O)c2nc(C#N)c(SCc3ccccc3)nc2n(C)c1=O [Example 59, 6-cyano-7-mercaptobenzyl-1,3-dimethyl-lumazine]
IC50 [1]: > 200 µM | IC50 [2]: 18.5 µM | IC50 [3]: 16 µM

Cn1c(=O)c2nc(Cl)c(N3CCCCC3)nc2n(C)c1=O [Example 75, 6-chloro-7-piperidyl-1,3-diimethyl-lumazine]
IC50 [1]: 160 µM | IC50 [2]: 80 µM | IC50 [3]: 80 µM
